Reference: patent US10206394B2, “Herbicidal compounds” (Syngenta Participations AG, priority 2014, dated 2019)
Where two headings read alike, the source gives them in different places.

Assays:
Test in all cases: Glasshouse assay for herbicidal activity (pre- and post-emergence), percentage phytotoxicity
Type in all cases: in vivo
[1] = test system: Echinochloa crus-galli (ECHCG); conditions: Echinochloa crus-galli, Rate 250 g/ha, 100%=total damage, 0%=no damage
Description: (§1) Test—Glasshouse Assay for Herbicidal Activity
(§2) Seeds of a variety of monocotyledonous and dicotyledonous test plants are sown in standard soil in pots. The plants are cultivated for one day (for pre-emergence (PRE)) or for about 12 days (for post-emergence (POST)) under controlled conditions in a glasshouse (warm climate species at 24/18° C., cool climate species at 20/16° C., both at day/night; 16 hours light; 65% humidity).
(§3) The test plants are then grown on, in a glasshouse (greenhouse) under controlled conditions (warm climate species at 24/18° C., cool climate species at 20/16° C., both at day/night; 16 hours light; 65% humidity) and are watered twice daily. 15 days after application of the test herbicide (15 DAA) (for post-emergence), and 20 days after application of the test herbicide (20 DAA) (for pre-emergence), the test plants are evaluated visually, and an assessed percentage phytotoxicity score is given for each herbicidal application on each plant species (with 100%=total damage to plant; 0%=no damage to plant).
(§4) The plant species tested are as follows: Alopecurus myosuroides (ALOMY), Avena fatua (AVEFA), Lolium perenne (LOLPE), Echinochloa crus-galli (ECHCG).

Lolium perenne (LOLPE) = conditions: Lolium perenne, Rate 250 g/ha, 100%=total damage, 0%=no damage
Description: as §1, §2, §3, §4

[2] = test system: Alopecurus myosuroides (ALOMY); conditions: Alopecurus myosuroides, Rate 250 g/ha, 100%=total damage, 0%=no damage
Description: as §1, §2, §3, §4

Avena fatua (AVEFA) = conditions: Avena fatua, Rate 250 g/ha, 100%=total damage, 0%=no damage
Description: as §1, §2, §3, §4

[3] = post-emergence, 360 h, post-emergence, assessed visually 15 DAA, read-out: Post-emergence herbicidal activity (percentage phytotoxicity) ECHCG POST
[4] = pre-emergence, 480 h, pre-emergence, assessed visually 20 DAA, read-out: Pre-emergence herbicidal activity (percentage phytotoxicity) ECHCG PRE
[5] = post-emergence, 360 h, post-emergence, assessed visually 15 DAA, read-out: Post-emergence herbicidal activity (percentage phytotoxicity) LOLPE POST
[6] = pre-emergence, 480 h, pre-emergence, assessed visually 20 DAA, read-out: Pre-emergence herbicidal activity (percentage phytotoxicity) LOLPE PRE
[7] = post-emergence, 360 h, post-emergence, assessed visually 15 DAA, read-out: Post-emergence herbicidal activity (percentage phytotoxicity) ALOMY POST
[8] = pre-emergence, 480 h, pre-emergence, assessed visually 20 DAA, read-out: Pre-emergence herbicidal activity (percentage phytotoxicity) ALOMY PRE
[9] = post-emergence, 360 h, post-emergence, assessed visually 15 DAA, read-out: Post-emergence herbicidal activity (percentage phytotoxicity) AVEFA POST
[10] = pre-emergence, 480 h, pre-emergence, assessed visually 20 DAA, read-out: Pre-emergence herbicidal activity (percentage phytotoxicity) AVEFA PRE

Structure (SMILES) | pest or weed control at 250 g/ha [1, 3] [%] | pest or weed control at 250 g/ha [1, 4] [%] | pest or weed control at 250 g/ha (Lolium perenne (LOLPE); [5]) [%] | pest or weed control at 250 g/ha (Lolium perenne (LOLPE); [6]) [%] | pest or weed control at 250 g/ha [2, 7] [%] | pest or weed control at 250 g/ha [2, 8] [%] | pest or weed control at 250 g/ha (Avena fatua (AVEFA); [9]) [%] | pest or weed control at 250 g/ha (Avena fatua (AVEFA); [10]) [%]
Cc1cc(-c2ccc(Cl)cn2)cc(C)c1C1C(=O)CC(CC(=O)NCc2cccc(Cl)c2)C1=O (centres unmarked) [Compound A134] | 100 | 90 | 100 | 80 | 90 | 70 | 90 | 90
Cc1cc(-c2ncc(Cl)cc2Cl)cc(C)c1C1C(=O)CC(CC(=O)NCc2cccc(Cl)c2)C1=O (centres unmarked) [Compound A135] | 100 | 60 | 90 | 70 | 90 | 20 | 100 | 30
Cc1cc(-c2ncc(F)cn2)cc(C)c1C1C(=O)CC(CC(=O)NCc2ccc(C(F)(F)F)nc2)C1=O (centres unmarked) [Compound A136] | 100 | 90 | 90 | 80 | 100 | 80 | 100 | 90
Cc1cc(-n2cc(Cl)cn2)cc(C)c1C1C(=O)CC(CC(=O)NCC(=O)c2ccccc2)C1=O (centres unmarked) [Compound A137] | 90 | 70 | 60 | 70 | 40 | 60 | 70 | 60
Cc1cc(-c2ncc(Cl)cn2)cc(C)c1C1C(=O)CC(CC(=O)NCc2cccs2)C1=O (centres unmarked) [Compound A139] | 20 | 90 | 10 | 0 | 10 | 0 | 30 | 0
Cc1cc(-c2ncc(F)cn2)cc(C)c1C1C(=O)CC(CC(=O)NCc2ncccc2Cl)C1=O (centres unmarked) [Compound A140] | 100 | 100 | 90 | 100 | 100 | 90 | 100 | 100
Cc1cc(-c2ncc(F)cn2)cc(C)c1C1C(=O)CC(CC(=O)NCc2cccs2)C1=O (centres unmarked) [Compound A141] | 100 | 100 | 90 | 100 | 90 | 90 | 100 | 90
Cc1cc(-c2cncnc2)cc(C)c1C1C(=O)CC(CC(=O)NCc2ncccc2Cl)C1=O (centres unmarked) [Compound A143] | 40 | 10 | 20 | 10 |  | 0 |  | 0
CC#Cc1cc(C)c(C2C(=O)CC(CC(=O)NCc3cnc(C)cn3)C2=O)c(C)c1 (centres unmarked) [Compound A144] | 100 | 100 | 90 | 90 | 80 | 80 | 100 | 90
Cc1cnc(CNC(=O)CC2CC(=O)C(c3c(C)cc(-c4cncnc4)cc3C)C2=O)cn1 (centres unmarked) [Compound A147] | 60 |  | 0 |  | 20 |  | 20 | 
